The results in this text go back to patent publication US20250368648A1, “MULTI-CYCLIC IRAK AND FLT3 INHIBITING COMPOUNDS AND USES THEREOF” (CHILDREN'S HOSPITAL MEDICAL CENTER, priority 2022, published 2025).

The IC50 is the concentration that inhibits the measured activity by half.

For this test, the target named is T1, FLT3 (Homo sapiens, UniProt P36888).
T1 sequence (P36888 27-993): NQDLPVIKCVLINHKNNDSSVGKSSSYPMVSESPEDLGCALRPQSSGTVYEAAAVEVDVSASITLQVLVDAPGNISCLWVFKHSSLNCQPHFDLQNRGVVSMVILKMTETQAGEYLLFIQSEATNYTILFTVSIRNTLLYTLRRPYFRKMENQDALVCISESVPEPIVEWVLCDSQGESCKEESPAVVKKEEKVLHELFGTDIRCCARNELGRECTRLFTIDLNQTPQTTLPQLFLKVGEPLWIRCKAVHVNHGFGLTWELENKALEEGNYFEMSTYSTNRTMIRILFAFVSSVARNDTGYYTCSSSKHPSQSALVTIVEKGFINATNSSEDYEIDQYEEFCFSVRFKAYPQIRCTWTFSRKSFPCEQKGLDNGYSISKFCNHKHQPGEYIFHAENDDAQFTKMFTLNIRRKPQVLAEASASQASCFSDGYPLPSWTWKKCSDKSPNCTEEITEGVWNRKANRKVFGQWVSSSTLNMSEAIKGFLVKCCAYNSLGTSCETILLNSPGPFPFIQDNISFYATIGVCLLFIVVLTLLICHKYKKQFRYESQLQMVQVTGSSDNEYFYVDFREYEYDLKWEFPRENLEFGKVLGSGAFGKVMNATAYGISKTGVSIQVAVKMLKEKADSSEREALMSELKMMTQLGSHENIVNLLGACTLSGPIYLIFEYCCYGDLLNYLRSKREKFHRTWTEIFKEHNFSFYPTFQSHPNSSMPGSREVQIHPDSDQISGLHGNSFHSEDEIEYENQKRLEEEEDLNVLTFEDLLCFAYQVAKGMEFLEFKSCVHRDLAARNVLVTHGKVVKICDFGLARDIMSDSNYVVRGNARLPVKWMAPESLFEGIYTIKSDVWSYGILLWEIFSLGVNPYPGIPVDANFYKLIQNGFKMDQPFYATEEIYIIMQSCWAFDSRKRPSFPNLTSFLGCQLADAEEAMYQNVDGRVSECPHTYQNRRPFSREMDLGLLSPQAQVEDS
As to the kind of experiment: Reaction Biology NanoBRET target engagement assay, FLT3. It counts as cell-based. The conditions noted are these: HEK-293 cells transfected with Kinase-NanoLuc fusion vector, live cells. From the text: The NanoBRET assay measures kinase engagement in real time in the context of the intact cell. Unlike the previously described biochemical kinase assay methodologies in Examples 47 and 48, the NanoBRET assay measures the binding and activity characteristics under equilibrium conditions using full-length kinases in the presence of cellular concentrations of ATP in live, uncompromised cells. […] The assay uses a Kinase-NanoLuc® fusion vector expressing a kinase protein to which a luciferase tag has been added, a cell-permeant fluorescent NanoBRET™ tracer, a NanoLuc® substrate, and an extracellular NanoLuc® inhibitor. Upon expression of the luciferase-tagged kinase, cells will produce a strong BRET signal only in the presence of the NanoBRET™ tracer. The extracellular NanoLuc® inhibitor ensures that the BRET signal observed emanates only from live cells. Because the BRET signal has tight distance constraints, addition of the test compound will decrease the BRET signal if the compound competes with the NanoBRET™ tracer for binding to the kinase domain. Under the appropriate tracer conditions established by the manufacturer, quantitative intracellular affinity and relative potency can then be determined using Mass Action model equations.
HEK-293 cells were purchased from ATCC. FuGENEHD Transfection Reagent, Kinase-NanoLucfusion plasmids, Transfection Carrier DNA, NanoBRETTracers and dilution buffer, NanoBRETNano-Glo Substrate, Extracellular NanoLucInhibitor were obtained from Promega.
Assays were conducted following Promega assay protocol with some modifications. HEK-293 Cells were transiently transfected with Kinase-NanoLucFusion Vector DNA by FuGENEHD Transfection Reagent. Testing compounds were delivered into 384 well assay plate by Echo 550 (LabcyteInc, Sunnyvale, CA). Transfected cells were harvested and mixed with NanoBRETTracer Reagent and dispensed into 384 well plates and incubated at 37° C. in 5% CO2 cell culture incubator for 1 hour. The NanoBRETNano-Glo Substrate plus Extracellular NanoLucInhibitor Solution were added into the wells of the assay plate and incubated for 2-3 minutes at room temperature. The donor emission wavelength (460 nm) and acceptor emission wavelength (600 nm) were measured in the EnVisionplate reader. The BRET Ratios were calculated. BRET Ratio=[(Acceptor sample÷Donor sample)−(Acceptor no-tracer control÷Donor no-tracer control)]. The IC50 values of compounds were calculated with Prism GraphPad program.
• 1). Cultivate HEK-293 cells (70-80% confluence) appropriately prior to assay. Trypsinize and collect HEK-293 cells. • 2). Prepare lipid: DNA complexes as follows: • a. Prepare a 10 μg/ml solution of DNA in Opti-MEM without serum that consists of the following ratios of carrier DNA and DNA encoding NanoLuc® fusion. […] of Transfection Carrier DNA, […] of NanoLuc fusion vector DNA and 1 mL of Opti-MEM without phenol red. Mix thoroughly. • b. Add 30 μl of FuGENE HD Transfection Reagent into each milliliter of DNA mixture to form lipid: DNA complex. • c. Mix by inversion 10 times. • d. Incubate at ambient temperature for 20 minutes to allow complexes to form. • 3). In a sterile, conical tube, mix 1 part of lipid:DNA complex with 20 parts of HEK-293 cells in suspension. Mix gently by inversion 5 times. • 4). Dispense cells+lipid: DNA complex into a sterile tissue culture dish and incubate for 22-24 hours.
Each test compound is delivered from the compound source plate to the wells of 384-well white NBS plate by Echo 550.
3. Preparation of Cells with NanoBRET™ Tracer Reagent • 1). Remove medium from dish with transfected HEK-293 cells via aspiration, trypsinize and allow cells to dissociate from the dish. • 2). Neutralize trypsin using medium containing serum and centrifuge at 200× g for 5 minutes to pellet the cells. Adjust the cell density to […] cells/mL in Opti-MEM without phenol red. • 3). Prepare Complete 20× NanoBRET™ Tracer Reagent with Tracer Dilution Buffer. • 4). […]
Background: BRET reads energy transfer from a luciferase to a nearby fluorophore.
`COc1cc2ncc(-c3nc(N[C@H]4CNC[C@@H]4F)c(F)cc3F)n2nc1C1CC2(CCC2)C1` [Compound 12a, 3,5-difluoro-N-((3S,4S)-4-fluoropyrrolidin-3-yl)-6-(7-methoxy-6-(spiro[3.3]heptan-2-yl)imidazo[1,2-b]pyridazin-3-yl)pyridin-2-amine] gave an IC50 of 13 nM.
For `COc1cc2ncc(-c3nc(N[C@@H]4CCCNC4)c(F)cc3F)n2nc1C(C)(O)C(F)(F)F` (single isomer, unassigned) [Compound 81a] the value was 5 nM; for `COc1cc2ncc(-c3nc(N[C@H]4CNCC[C@@H]4F)c(F)cc3F)n2nc1C(C)(O)C(F)(F)F` (single isomer, unassigned) [Compound 77a], 2 nM; for `COc1cc2ncc(-c3nc(N[C@H]4CNCC[C@@H]4F)c(F)cc3F)n2nc1C1CC2(CCC2)C1` [Compound 10a, 3,5-difluoro-N-((3S,4S)-4-fluoropiperidin-3-yl)-6-(7-methoxy-6-(spiro[3.3]heptan-2-yl)imidazo[1,2-b]pyridazin-3-yl)pyridin-2-amine], 63 nM.
As for `COc1cc2ncc(-c3nc(N[C@H]4CNC[C@@H]4F)c(F)cc3F)n2nc1C(C)(O)C(F)(F)F` (single isomer, unassigned) [Compound 80a], 1 nM corresponded to half-maximal inhibition (IC50).
For `COc1cc2ncc(-c3nc(N[C@H]4CNCC[C@@H]4F)c(F)cc3F)n2nc1C1CCC1` [Compound 15a, 6-(6-cyclobutyl-7-methoxyimidazo[1,2-b]pyridazin-3-yl)-3,5-difluoro-N-((3S,4S)-4-fluoropiperidin-3-yl)pyridin-2-amine], the IC50 was less than 0.5 nM.
For `COc1cc2ncc(-c3nc(N[C@H]4CNCC[C@@H]4F)c(F)cc3F)n2nc1C12CC(C1)C2` [Compound 67a, 6-(6-(bicyclo[1.1.1]pentan-1-yl)-7-methoxyimidazo[1,2-b]pyridazin-3-yl)-3,5-difluoro-N-((3S,4S)-4-fluoropiperidin-3-yl)pyridin-2-amine], the IC50 came out at 1 nM.
